Measured values taken from article PMC6235670, “An mTOR Signaling Modulator Suppressed Heterotopic Ossification of Fibrodysplasia Ossificans Progressiva” (Stem Cell Reports, 2018).

Test system: FOP-ACVR1 (R206H) conditional transgenic mice
Experimental: MTOR s604 […]tt […]at […]
Cardiotoxin-induced HO model in human FOP-ACVR1 conditional transgenic mice. Female hFOP-ACVR1 conditional transgenic mice (Beard et al., 2006; Hino et al., 2017; Ohnishi et al., 2014; Yamada et al., 2013) (f5-6 offspring of chimeric mice, age- and body weight- matched between groups) were used between 16 and 20 weeks of age. Mice were administered 2 mg/mL Dox in their drinking water supplemented with 10 mg / mL sucrose to induce FOP-ACVR1. Cardiotoxin (9.1 µg/mouse, Latoxan) was injected into the right gastrocnemius muscle to initiate skeletal muscle injury and subsequent heterotopic bone formation (Chakkalakal et al., 2012). Test compounds (16% DMSO in 0.5 w/v% Methyl Cellulose 400) were intraperitoneally administered once a day, five times a week. Mice were analyzed three weeks after injection.
For X- ray images, mice were anesthetized with isoflurane (5% for induction, 2-3% for maintenance, Abbvie), immobilized and X-rayed using µFX-1000 (Fujifilm) or DX-50 (Faxitron Bioptics). µCT images were scanned using X-ray CT systems (inspeXio SMX-100CT, Shimadzu) and analyzed with TRI/3D-BON software (Ratoc System Engineering) according to the manufacturer's instructions. Four weeks after injection, the injected sites were harvested, fixed with 4% paraformaldehyde for 24 h, embedded in paraffin, and sectioned and stained with HE, von Kossa, Safranin O and anti-Collagen I antibody as previously described ( Hino et al., 2015; U med a […]
BMP-7-induced HO model mice. […] Mice were analyzed 2 weeks after injection. […]
Histological analysis of growth plates chondrocytes. Knee joints were obtained from BMP-7-injected and test compounds-administrated C57BL/6NJcl mice after 2 weeks treatment and fixed, paraffin-embedded, and sectioned and stained with Safranin O. The thickness of the proliferative and hypertrophic zones of the growth plate were measured using ImageJ software on images obtained using a Keyence microscope (Keyence A merica). […]

FC(F)(F)c1ccc(/C=C/c2nc(COc3ccc(CCCCn4ccnn4)cc3)co2)cc1 [TAK 165, mubritinib]
body weight change compared with vehicle (5 mg/kg i.p.): No apparent differences | von Kossa or COL1 staining of CTX-injected site (5 mg/kg i.p.): less positive staining | heterotopic ossification (heterotopic bone volume) (5 mg/kg i.p. once daily, five times a week, 3 weeks after CTX): significantly suppressed
